Results taken from patent US11840686B2, “Modulation of prekallikrein (PKK) expression” (Ionis Pharmaceuticals, Inc., priority 2013, dated 2023).
Strand notation (5' to 3'): a small letter for the sugar, then the base; units joined by * are phosphorothioate-linked, units joined directly phosphodiester-linked; [ ] holds rarer units or linkages, { } end groups; capitals alone tell only the bases. e = 2'-O-(2-methoxyethyl) (MOE); [5mC] = 5-methylcytosine; d = 2'-deoxy (DNA)

Tested on: human PKK mRNA
Assay: Antisense inhibition of human PKK mRNA in HepaRG cells, 5,000 nM (Example 2)
Type: cell-based
Summary of the method: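 Percent inhibition of PKK mRNA is reported relative to untreated cells, after adjustment for total RNA by RIBOGREEN. Gapmers of 16–20 nucleosides with 2′-MOE wings were delivered at 5,000 nM by electroporation into HepaRG cells and left for roughly 24 hours before RNA isolation.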

[1] = HepaRG cells, electroporation with 5,000 nM antisense oligonucleotide, approximately 24 hours, PKK mRNA by RT-PCR (RTS3454), relative to untreated control cells, Table 6 experiment
[2] = HepaRG cells, electroporation, 5,000 nM antisense oligonucleotide, approx. 24 hours, primer probe set RTS3454, relative to untreated control cells, Table 11
[3] = HepaRG cells, electroporation with 5,000 nM antisense oligonucleotide, approximately 24 hours, PKK mRNA by RT-PCR (RTS3454), relative to untreated control cells, Table 5 experiment
[4] = human PKK mRNA in HepaRG cells, 5-10-5 gapmers, Table 14
[5] = Table 7, HepaRG cells, electroporation with 5,000 nM antisense oligonucleotide, approx. 24 hours, PKK mRNA by RT-PCR (RTS3454), relative to untreated control cells
[6] = human PKK mRNA, HepaRG cells, 5-10-5 motif oligonucleotides targeting SEQ ID NO: 1 and 10
[7] = HepaRG cells, 5,000 nM antisense oligonucleotide, 5-10-5 gapmers, Table 16
[8] = HepaRG cells, 5,000 nM antisense oligonucleotide, 5-10-5 gapmers, Table 17
[9] = Table 9 experiment, HepaRG cells, 20,000 cells per well, electroporation with 5,000 nM antisense oligonucleotide, approx. 24 hours, PKK mRNA by RT-PCR (RTS3454), relative to untreated control cells
[10] = Table 10 experiment, HepaRG cells, 20,000 cells per well, electroporation with 5,000 nM antisense oligonucleotide, approx. 24 hours, PKK mRNA by RT-PCR (RTS3454), relative to untreated control cells
[11] = HepaRG cells, electroporation, 5,000 nM antisense oligonucleotide, approx. 24 hours, primer probe set RTS3454, relative to untreated control cells, Table 12

Substance: 546184 (antisense e[5mC]*eA*eA*eG*e[5mC]*dA*d[5mC]*dT*dT*dA*dT*dT*dT*dG*dA*eT*eG*eA*e[5mC]*e[5mC]) [compound 546184]
- % inhibition [1]: 65%

Substance: 546385 (eA*eT*eT*eG*eT*d[5mC]*d[5mC]*dT*d[5mC]*dA*dG*d[5mC]*dA*dG*d[5mC]*eT*e[5mC]*eT*eG*eA; antisense) [compound 546385]
- % inhibition [2]: 67%

Substance: 546280 (e[5mC]*e[5mC]*eA*eG*eA*dG*d[5mC]*dT*d[5mC]*d[5mC]*d[5mC]*dT*dT*dG*dT*eG*eT*e[5mC]*e[5mC]*e[5mC]; antisense) [compound 546280]
- % inhibition (Table 8, HepaRG cells, electroporation with 5,000 nM antisense oligonucleotide, approx. 24 hours, PKK mRNA by RT-PCR (RTS3454), relative to untreated control cells): 86%

Substance: 547313 (antisense eG*eT*eT*e[5mC]*eG*dA*dT*dG*dT*dA*d[5mC]*dT*dT*dT*dT*eG*eG*e[5mC]*eA*eG) [compound 547313]
- % inhibition [3]: 73%

Substance: 547604 (antisense eA*eT*eA*eT*e[5mC]*dA*d[5mC]*dT*dG*dT*dA*d[5mC]*d[5mC]*dT*dA*eT*eA*eA*e[5mC]*eT) [compound 547604]
- % inhibition [4]: 0%

Substance: 546366 (antisense eT*eG*e[5mC]*e[5mC]*eT*dA*dG*dA*d[5mC]*dT*d[5mC]*dT*dG*dG*dA*e[5mC]*eT*eG*e[5mC]*eT) [compound 546366]
- % inhibition [2]: 79%

Substance: 548779 (antisense eG*eT*e[5mC]*e[5mC]*dT*dA*dT*dA*dA*d[5mC]*dT*dA*dT*eA*eA*e[5mC]*eA) [compound 548779]
- % inhibition (human PKK mRNA, HepaRG cells, 5,000 nM antisense oligonucleotide, Table 18): 0%

Substance: 546836 (eA*eT*eA*eA*e[5mC]*dT*d[5mC]*dT*dA*dA*d[5mC]*dA*dG*dT*dA*eT*e[5mC]*eA*e[5mC]*eT; antisense) [compound 546836]
- % inhibition (Table 13, human PKK mRNA in HepaRG cells, 5-10-5 gapmers): 30%

Substance: 547387 (eT*eG*eG*eT*eG*dT*dT*dT*dT*d[5mC]*dT*dT*dG*dA*dG*eG*eA*eG*eT*eA; antisense) [compound 547387]
- % inhibition [5]: 73%

Substance: 546905 (eT*eA*e[5mC]*e[5mC]*eT*dA*dT*dA*dA*d[5mC]*dA*dG*dT*dA*dT*e[5mC]*eA*e[5mC]*eT*eG; antisense) [compound 546905]
- % inhibition [6]: 65%

Substance: 547703 (antisense e[5mC]*eA*eA*e[5mC]*eA*dT*d[5mC]*dA*d[5mC]*dT*dG*dT*dA*d[5mC]*d[5mC]*eT*eA*eT*eA*eA) [compound 547703]
- % inhibition [7]: 25%

Substance: 546606 (e[5mC]*eT*e[5mC]*eA*e[5mC]*d[5mC]*dA*dG*dA*dG*dT*dT*dG*dT*d[5mC]*e[5mC]*e[5mC]*e[5mC]*eA*eG; antisense) [compound 546606]
- % inhibition [8]: 0%

Substance: 546392 (eG*eA*e[5mC]*e[5mC]*eT*d[5mC]*dG*d[5mC]*dA*dT*dT*dG*dT*d[5mC]*dA*eG*e[5mC]*e[5mC]*e[5mC]*e[5mC]; antisense) [compound 546392]
- % inhibition [2]: 72%

Substance: 547479 (antisense eT*eA*eT*eA*eA*dT*d[5mC]*dT*dT*dG*dA*dT*dA*dT*d[5mC]*eT*eT*eT*eT*e[5mC]) [compound 547479]
- % inhibition [9]: 48%
- % inhibition [10]: 9%

Substance: 547344 (antisense eG*eA*e[5mC]*eA*e[5mC]*dA*dT*dT*dA*dA*dA*dA*dT*dT*dG*eA*e[5mC]*eT*e[5mC]*e[5mC]) [compound 547344]
- % inhibition [1]: 80%

Substance: 547552 (antisense e[5mC]*eT*e[5mC]*e[5mC]*e[5mC]*d[5mC]*dA*dT*dG*d[5mC]*dA*dT*dA*d[5mC]*dT*e[5mC]*eG*e[5mC]*e[5mC]*eT) [compound 547552]
- % inhibition [11]: 53%

Substance: 546990 (eA*eG*eA*eA*e[5mC]*dA*dG*dG*dA*dG*dA*d[5mC]*dA*dA*dT*e[5mC]*e[5mC]*eA*e[5mC]*eT; antisense) [compound 546990]
- % inhibition [7]: 49%

Substance: 547612 (antisense e[5mC]*e[5mC]*eT*eG*eT*dA*dA*d[5mC]*dA*dG*dT*dA*dT*d[5mC]*dA*e[5mC]*eT*eG*eT*eA) [compound 547612]
- % inhibition [4]: 68%

Substance: 547399 (eG*e[5mC]*eA*eG*eG*dG*dT*dT*d[5mC]*dA*dG*dG*dT*dA*dA*eA*eG*eT*eT*e[5mC]; antisense) [compound 547399]
- % inhibition [5]: 10%

Substance: 547674 (eA*e[5mC]*eA*eA*eT*dA*dT*d[5mC]*dA*d[5mC]*dT*dG*dT*dA*d[5mC]*e[5mC]*eT*eT*eT*eA; antisense) [compound 547674]
- % inhibition [6]: 53%

Substance: 547320 (antisense eA*eG*eG*eA*eA*dT*dG*dT*d[5mC]*d[5mC]*dA*dG*dA*dA*dA*e[5mC]*eT*eG*e[5mC]*eA) [compound 547320]
- % inhibition [1]: 73%

Substance: 546500 (eT*eT*e[5mC]*e[5mC]*eA*dT*dG*d[5mC]*dA*dT*dA*d[5mC]*dT*d[5mC]*dG*e[5mC]*e[5mC]*eT*eT*eT; antisense) [compound 546500]
- % inhibition [11]: 46%

Substance: 546167 (e[5mC]*eT*e[5mC]*e[5mC]*eA*dT*dG*dT*d[5mC]*dA*dT*dT*dG*dA*dT*eT*eG*eA*eA*e[5mC]; antisense) [compound 546167]
- % inhibition [3]: 73%

Substance: 547316 (antisense eG*eA*eA*eA*e[5mC]*dT*dG*d[5mC]*dA*d[5mC]*d[5mC]*dT*dG*dT*dT*e[5mC]*eG*eA*eT*eG) [compound 547316]
- % inhibition [1]: 75%

Substance: 546943 (e[5mC]*eA*eG*eT*eT*dT*dG*dG*d[5mC]*d[5mC]*dT*dT*dT*d[5mC]*d[5mC]*eA*eT*e[5mC]*eT*e[5mC]; antisense) [compound 546943]
- % inhibition [7]: 54%

Substance: 546955 (eA*e[5mC]*eA*eA*eG*dG*d[5mC]*dT*dT*d[5mC]*dG*dA*dG*dG*dA*e[5mC]*eA*eG*e[5mC]*e[5mC]; antisense) [compound 546955]
- % inhibition [7]: 49%

Substance: 547382 (e[5mC]*eT*eT*eT*eG*dT*dG*dA*d[5mC]*dT*d[5mC]*dG*dA*dT*dT*eT*eT*e[5mC]*e[5mC]*eA; antisense) [compound 547382]
- % inhibition [5]: 62%

Substance: 547545 (antisense eA*eT*eA*e[5mC]*eT*d[5mC]*dG*d[5mC]*d[5mC]*dT*dT*dT*dG*dT*dG*eA*eT*eG*e[5mC]*eG) [compound 547545]
- % inhibition [11]: 43%

Substance: 547509 (antisense e[5mC]*e[5mC]*e[5mC]*e[5mC]*e[5mC]*d[5mC]*dA*dG*dG*d[5mC]*dT*d[5mC]*dA*dG*dA*eA*eT*eT*eT*eG) [compound 547509]
- % inhibition [2]: 58%

Substance: 547280 (antisense eG*eA*eA*eA*eA*d[5mC]*dA*d[5mC]*dA*dA*dT*dT*dG*d[5mC]*dT*eT*e[5mC]*eT*eT*eG) [compound 547280]
- % inhibition [3]: 47%

Substance: 546339 (antisense e[5mC]*eT*eT*eG*eA*dT*dA*dT*d[5mC]*dT*dT*dT*dT*d[5mC]*dT*eG*eG*e[5mC]*eA*eT) [compound 546339]
- % inhibition [9]: 65%
- % inhibition [10]: 64%

Substance: 547282 (antisense eT*eT*eG*e[5mC]*eT*dT*dG*d[5mC]*dT*dT*dG*dA*dA*dT*dA*eA*eA*eA*eT*e[5mC]) [compound 547282]
- % inhibition [3]: 53%

Substance: 546502 (eG*eA*eT*eT*eT*dT*d[5mC]*d[5mC]*dA*dT*dG*d[5mC]*dA*dT*dA*e[5mC]*eT*e[5mC]*eG*e[5mC]; antisense) [compound 546502]
- % inhibition [11]: 37%

Substance: 547762 (antisense eT*eG*eA*eA*eA*d[5mC]*dT*dG*dG*dG*d[5mC]*dA*dG*dT*d[5mC]*e[5mC]*eT*eT*e[5mC]*e[5mC]) [compound 547762]
- % inhibition [8]: 0%

Substance: 547458 (antisense eT*eA*eT*e[5mC]*eA*dA*dG*dG*d[5mC]*dG*dA*dT*dA*dT*d[5mC]*eA*eT*eG*eA*eT) [compound 547458]
- % inhibition [9]: 84%
- % inhibition [10]: 64%

Substance: 547325 (antisense eG*eA*e[5mC]*e[5mC]*eA*d[5mC]*dA*dT*dT*dG*d[5mC]*dT*dT*d[5mC]*dA*eA*eG*eG*eA*eA) [compound 547325]
- % inhibition [1]: 67%

Substance: 548716 (DNA eT*eA*eT*d[5mC]*dA*d[5mC]*dT*dG*dT*dA*d[5mC]*dT*dA*eG*eT*eT; antisense) [compound 548716]
- % inhibition (HepaRG cells, 5,000 nM antisense oligonucleotide, human PKK mRNA, Table 18): 10%

Substance: 546684 (eT*eA*e[5mC]*eT*e[5mC]*dT*d[5mC]*dT*dA*d[5mC]*dA*dT*dA*d[5mC]*dT*e[5mC]*eA*eG*eG*eA; antisense) [compound 546684]
- % inhibition [11]: 71%

Substance: 546495 (eT*eG*e[5mC]*eA*eT*dA*d[5mC]*dT*d[5mC]*dG*d[5mC]*d[5mC]*dT*dT*dT*eG*eT*eG*eA*e[5mC]; antisense) [compound 546495]
- % inhibition [11]: 65%

Substance: 547766 (antisense eG*e[5mC]*e[5mC]*eT*e[5mC]*dT*d[5mC]*dA*dG*dA*d[5mC]*dG*dG*d[5mC]*dA*e[5mC]*eA*eG*eA*e[5mC]) [compound 547766]
- % inhibition [8]: 0%

Substance: 546719 (e[5mC]*e[5mC]*e[5mC]*e[5mC]*e[5mC]*dA*dT*dG*dT*d[5mC]*d[5mC]*dA*dT*dG*dG*eA*e[5mC]*eT*eT*eT; antisense) [compound 546719]
- % inhibition [11]: 55%
